Patent US9827219B2, “Compositions and methods for lowering levels of high-sensitivity C-reactive protein (HS-CRP) in a subject” (priority 2012, dated 2017)

Columns and labels:
Format in all cases: in vivo, human
LDL-C = LDL-C in patients with diabetes mellitus-2 (Example 2); conditions: 4 g/day; for Median placebo-adjusted percent change in LDL-C from baseline to study end: 12 weeks, on statin
Excerpt: (§1) Parameters (a)-(y) can be measured in accordance with any clinically acceptable methodology. For example, triglycerides, total cholesterol, HDL-C and fasting blood sugar can be sample from serum and analyzed using standard photometry techniques. VLDL-TG, LDL-C and VLDL-C can be calculated or determined using serum lipoprotein fractionation by preparative ultracentrifugation and subsequent quantitative analysis by refractometry or by analytic ultracentrifugal methodology. Apo A1, Apo B and hsCRP can be determined from serum using standard nephelometry techniques. Lipoprotein (a) can be determined from serum using standard turbidimetric immunoassay techniques. LDL particle number and particle size can be determined using nuclear magnetic resonance (NMR) spectrometry. Remnants lipoproteins and LDL-phospholipase A2 can be determined from EDTA plasma or serum and serum, respectively, using enzymatic immunoseparation techniques. Oxidized LDL, intercellular adhesion molecule-1 and interleukin-2 levels can be determined from serum using standard enzyme immunoassay techniques. These techniques are described in detail in standard textbooks, for example Tietz Fundamentals of Clinical Chemistry, 6th Ed. (Burtis, Ashwood and Borter Eds.), WB Saunders Company.
The effect of >96% E-EPA on lipid and inflammatory parameters was evaluated in patients with fasting triglyceride levels ≧150 mg/dl and <499 mg/dl on concomitant statin therapy. Patients with diabetes mellitus-2 were randomized and treated with either 2 g/day >96% E-EPA, 4 g/day >96%, or placebo for twelve weeks. At the end of the treatment period, several diabetes efficacy endpoints were evaluated including, TG, LDL-C, non-HDL-C, VLDL-C, Lp-PLA2, Apo B, TC, HDL-C, VLDL-TG, hs-CRP, oxLDL, and RLP-C.

Lp-PLA2 = assay: MARINE study, Lp-PLA2; conditions: MARINE ITT; 2 g/day; week 12
Excerpt: as §1, with “Company. […]” for “Company.”

Apo B = Apo B in patients with diabetes mellitus-2 (Example 2); conditions: 4 g/day, 12 weeks, on statin
Excerpt: as §1, with “(Burtis, Ashwood and Borter Eds.), WB Saunders Company.” left out
The effect of >96% E-EPA on lipid and inflammatory parameters was evaluated in patients with fasting triglyceride levels ≧150 mg/dl and <499 mg/dl on concomitant statin therapy. […]

[1] = well-controlled diabetes (HbA1c < median of 6.8%)

## CC/C=C\C/C=C\C/C=C\C/C=C\C/C=C\CCCC(=O)OCC [AMR101, all-cis eicosa-5,8,11,14,17-pentaenoic acid ethyl ester]
LDL-C; less-controlled diabetes (HbA1c ≧ median of 6.8%)
  Median placebo-adjusted percent change in LDL-C from baseline to study end: −5.7%
LDL-C; total diabetes
  Median placebo-adjusted percent change in LDL-C from baseline to study end: −6.3%
LDL-C; [1]
  Median placebo-adjusted percent change in LDL-C from baseline to study end: −6.6%
LDL-C; twelve weeks
  LDL-C levels between well-controlled, less-controlled and all diabetic subjects: no significant decrease in LDL-C levels
Lp-PLA2
  Lp-PLA2 change from baseline (median): −5.1%
Apo B; total diabetes
  Median placebo-adjusted percent change in Apo B from baseline to study end: −9.5%
Apo B; [1]
  Median placebo-adjusted percent change in Apo B from baseline to study end: −6.1%
